Data reported in PMC12441861, “Next-Generation Lipid Prodrugs Orally Deliver Tenofovir via Enhanced Chylomicron Incorporation” (ACS Pharmacology & Translational Science, 2025).
Read-outs that look alike come from different tables or passages of the source.

Columns and labels:
Caco-2 cell-derived CMs = format: in vitro ADME, human; conditions: 10 μM test drug, Caco-2 cells
Protocol: [formula] 1 Chylomicron (CM) Isolation and Drug Quantification Methods ^a a (1) Caco-2 cells were grown to confluence. (2) Lipid mix was added to media (final drug concentration of 10 μM), and cells were incubated for 4 h. (3) Cells were washed 3× with PBS. (4) Cells were incubated in fresh media overnight. (5) CM-containing media was collected. (6) Media was combined with a 1.20 g/mL NaCl solution in an ultracentrifugation tube, 500 μL H2O was carefully layered on top, and the mixture was centrifuged at 10,950 RCF for 3 h. (7) The CM-containing upper layer was carefully isolated with a fine-tip pipette. (8) Test drug was then extracted from the CM layer with 70% ACN and quantified using LC-MS/MS.
With the presence of CMs in isolated Caco-2 cell extracts confirmed and reproducibility validated across replicates and different drugs, we were eager to investigate drug incorporation during CM biogenesis in vitro. Accordingly, we added test compound (Figure ) to differentiated Caco-2 cells along with the lipid mix to a final test drug concentration of 10 μM. While 10 μM was selected as a standard concentration for these studies, higher concentrations could allow detection of other compounds with low CM association in future experiments. In either case, CMs secreted by Caco-2 cells can be isolated postincubation, and drug concentrations within CMs can be assessed using highly sensitive LC-MS/MS methodology. Positive (high c Log D) and negative (low c Log D) control compounds were selected to validate this assay. […] Given these properties, we expected CAB to readily package into CMs in vitro. […]. […] This sets the stage for quantitative comparisons of TXL and its functionalized analogs, which are detailed below.
At 14-days postconfluence, Caco-2 cells were incubated in a lipid mixture to induce secretion of CMs. For the lipid solution, oleic acid (50 mg), lecithin (40 mg), and sodium taurocholate (48 mg) were weighted out into an Eppendorf tube, and the volume was brought up to 900 μL with PBS, followed by vigorous vortexing to ensure sample homogeneity. This 100× lipid mixture was then diluted into growth media to achieve the desired concentrations (2 mM oleic acid, 1.36 mM lecithin, 1 mM sodium taurocholate) by adding 500 μL of the lipid mixture to 49.5 mL of media. The lipid-supplemented media was thoroughly mixed and sterilized by filtration using a 250 mL sterile vacuum filter. For the drug-exposed CM experiments, each test compound was dissolved in 2 mM human serum albumin (HAS, Sigma, essentially fatty acid free) in DPBS, then added to 10 mL aliquots of lipid-containing media to achieve a final concentration of 10 μM. Subsequently, lipid-containing media was added to Caco-2 cells and incubated for 4 h at 37 °C. After incubation, cells were washed twice with PBS then incubated for 4, 8, or 20 h at 37 °C in fresh, colorless growth medium. Media was collected into 15 mL falcon tubes and centrifuged at 2000g to remove cell debris. Postcentrifugation, the supernatant was transferred to 50 mL Nalgene Oak Ridge High-Speed PPCO Centrifuge Tubes. Next, to adjust the density for ultracentrifugation, 1.19 g of NaCl in 2 mL of deionized (DI) H2O were added to reach a final volume of 5 mL, corresponding to a density of 1.20 g/mL. This mixture was dissolved by vortexing and balanced by weight. 500 μL of DI H2O was carefully overlaid onto the mixture. Ultracentrifugation was performed for 2 h and 30 min at 10,920 relative centrifugal force (RCF). Immediately after centrifugation, the top 500 μL layer, containing CMs, was carefully collected using a gel-loading pipet tip.
To an aliquot of CM extract was added an equal volume of ACN into 1.5 mL Eppendorf tubes. Tubes were shaken for 1 h at rt then centrifuged at 15,000 RCF to remove debris. The clear supernatant was transferred to a glass vial and concentrated under reduced pressure to yield a dry solid. Sample was then reconstituted in 70% ACN in H2O, filtered and then analyzed. […]

[1] = cited from earlier work
[2] = cited from earlier work; remark: listed apart in the source
Cytotoxicity, MTT assay = conditions: human, TZM-bl cells
Protocol: To measure cytotoxicity, HeLa-derived TZM-bl cells , were treated with serial dilutions of each drug, and viability was assessed after 48 h. Two methods were used: an ATP luminescence assay, which measures cellular ATP levels as an indicator of metabolic activity (compounds 8a–d), and an MTT assay, which evaluates cell viability via mitochondrial enzymatic activity (compounds 15b, 21a, and 21b).
The TZM-bl cell line (BEI Resources, ARP-8129) was used to evaluate both cell viability and HIV pseudovirus infectivity reduction. Cytotoxicity in this cell line was measured via two methods. The first method, an ATP luminescence assay, was used for compounds 15a, 15b, 21a, and 21b as such: 6000 TZM-bl cells per well were seeded in a 96-well plate and incubated at 37 °C with 5% CO2 for 24 h. Compounds were prepared as serial dilutions (final concentrations of 1, 0.2, 0.04, 0.008, and 0.0016 μM) in complete DMEM with DEAE-Dextran at 40 μg/mL to mimic HIV infectivity conditions. Solutions were added to the cells and incubated for another 48 h. Viability was assessed using the Promega Cell Titer Glow (CTG) Assay (cat No. G9242) by adding a 50% PBS-CTG solution to each well and measuring luminescence, which correlates with ATP levels, on an Agilent BioTek Synergy HT reader. Cytotoxicity of compounds 8a–d was determined using a colorimetric assay based the conversion of MTT (3-(4,5-dimethylthiazol-2-yl)-2,5-diphenyltetrazolium bromide) to formazan as described previously. TZM-bl cells were plated into 96-well tissue culture plates 1 day prior to performing the MTT assay. A series of 10 3-fold dilutions of each compound was performed from a starting concentration of 10 mM and each dilution was tested for a reduction in cell viability according to the manufacturer’s instructions (CyQuant MTT Cell Viability Assay, ThermoFisher, V13154). Wells containing TZM-bl cells with media only were used as a control. Briefly, serial dilutions of each test compound were added to the plated TZM-bl cells. At 48 h, the media was removed and replaced with 100 mL of fresh culture medium. 10 mL of 12 mM MTT solution was added to each well and incubated at 37 °C for 4 h. 85 mL of supernatant was then removed from each well and replaced with 50 mL of DMSO. Following a 10 min incubation at 37 °C, the absorbance of each well was determined at 540 nm using a Biotek Synergy Neo2 multimode reader and Gen5 v3.02 software.

[3] = Metabolic stability in human liver microsomes; format: in vitro ADME; conditions: pH 7.4, read-out: Metabolic Stability HLM t1/2
Protocol: Assays employed human liver microsomes (HLMs, 20 mg/mL) from Xenotech. A 10 mM NADPH stock was prepared in deionized H2O, and test compounds were dissolved in 100% MeOH to a final concentration of 10 mM. The stock solutions were diluted to 500 μM in 100 mM potassium phosphate buffer (pH 7.4), keeping the final MeOH concentration below 0.2%. Reaction mixtures were prepared by combining 928 μL phosphate buffer, 55 μL liver microsomes, and the test compound solution to a final concentration of 3 μM. Verapamil was used as a positive control. The reactions were initiated with the addition of 110 μL of 10 mM NADPH. Aliquots were taken in duplicate at 0, 5, 10, 15, and 30 min, quenched with 100 μL of cold MeOH containing 2 μM internal standard (d 5-7-ethoxy coumarin), and centrifuged at 12,000 RCF for 5 min. The supernatants were then transferred to LC-MS vials for analysis. The average of each duplicate was normalized to the 0 min time point, representing 100% remaining (0% metabolism).

With `CO[C@H]1C(=O)[C@]2(C)[C@@H](OC)C[C@H]3OC[C@@]3(OC(C)=O)[C@H]2[C@H](OC(=O)c2ccccc2)[C@]2(O)C[C@H](OC(=O)[C@H](O)[C@@H](NC(=O)OC(C)(C)C)c3ccccc3)C(C)=C1C2(C)C` [CAB, Cabazitaxel, reference compound] the “detection of compound in CM extract by LC-MS/MS” value (Caco-2 cell-derived CMs) was “presence”.

In the case of `CCCCCCCCCCCCCCCC(=O)OCC(COC(=O)CCCCCCCCCCCCCCC)OC(=O)CC(C)CC(=O)Oc1cc(C)cc(C)c1C(C)(C)CC(=O)Oc1ccc2c3c1O[C@H]1[C@@]4(OC)CC[C@@]5(C[C@@H]4[C@](C)(O)C(C)(C)C)[C@@H](C2)N(CC2CC2)CC[C@]315` (stereo partly shown) [BUP-TML-C5βMe-TG], the “oral dose recovered in mesenteric lymph” value ([1]; within 6 h, ref Quach 2022) is listed as 44.7% oral dose recovered in mesenteric lymph within 6 h and the “Δ Oral Availability (% versus Parent)” value ([2]; parent Buprenorphine, ref Quach 2022) is listed as 83%.

With `CN(C)C(=N)N=C(N)N` [MET, metformin, reference compound] the “detection of compound in CM extract by LC-MS/MS” value (Caco-2 cell-derived CMs) was “absence”.

For `CCCCCCCCCCCCCCCCCCOC[C@@H](COP(=O)(O)CO[C@H](C)Cn1cnc2c(N)ncnc21)OCc1ccccc1` [8b, Ammonium[(1R)-2-(6-aminopurin-9-yl)-1-methyl-ethoxy]methyl-[(2S)-2-benzyloxy-3-octadecoxy-propoxy]phosphinate], the CC50 at 48 h (Cytotoxicity, MTT assay) was > 10 µM and the half-life at 3 µM [3] was > 2 h.

For `C[C@]12CC[C@H]3[C@@H](CCC4=CC(=O)CC[C@@]43C)[C@@H]1CC[C@@H]2O` [Testosterone], the “orally-dosed drug recovered in mesenteric lymph” value (shortened to “orally-dosed drug recovered”) ([1]; in vivo, po) is listed as 28% orally-dosed drug recovered in mesenteric lymph (0% for parent).

For `CCCCCCCCCCCCCCCC(=O)OCC(COC(=O)CCCCCCCCCCCCCCC)OC(=O)CC(C)CC(=O)OCOC1CCC2C3CCC4=CC(=O)CCC4(C)C3CCC12C` (stereo not shown) [Testosterone-ASI-C5-βMe-TG], the “orally-dosed drug recovered” value ([1]; ref Hu 2016) is given as 28% orally-dosed drug recovered in mesenteric lymph (0% for parent) and the “Δ Oral Availability (% versus Parent)” value ([2]; parent Testosterone, ref Hu 2016) is given as 90%.

For `CCCCCCCCCCCCCCCC(=O)OCC(COC(=O)CCCCCCCCCCCCCCC)OC(=O)CCCSSCCCC(=O)O[C@@H](C(=O)O[C@H]1C[C@@]2(O)[C@@H](OC(=O)c3ccccc3)[C@@H]3[C@]4(OC(C)=O)CO[C@@H]4C[C@H](O)[C@@]3(C)C(=O)[C@H](O)C(=C1C)C2(C)C)[C@@H](NC(=O)OC(C)(C)C)c1ccccc1` [DTX-S-S-TG], the “Evidence of Lymphatic Uptake” value ([1]; ref Tian 2019) is listed as “Cycloheximide inhibition reduces lymphatic transport and prodrug bioavailability” and the “Δ Oral Availability (% versus Parent)” value ([2]; parent Docetaxel, ref Tian 2019) is listed as 44%.

For `CCCCCCCCCCC(=O)O[C@H]1CC[C@H]2[C@@H]3CCC4=CC(=O)CC[C@]4(C)[C@H]3CC[C@]12C` [Testosterone Undecanoate (TU), Testosterone Undecanoate], the “lymphatic transport as share of systemic availability” value ([1]; oral administration, ref not printed in text (Table 1: Shackleford 2003)) is given as 91.5–99.7% and the “Δ Oral Availability (% versus Parent)” value ([2]; parent Testosterone, ref Shackleford 2003) is given as 7%.

For `CCCCCCCCCCCCCCCCCCCC(=O)OCC(COP(=O)([O-])OCC[N+](C)(C)C)OC(=O)C(CCC)CCC` (stereo not shown) [DP-VPA], the “orally-dosed drug recovered” value ([1]; ref Dahan 2008) is given as 60% orally-dosed drug recovered in mesenteric lymph and the “Δ Oral Availability (% versus Parent)” value ([2]; parent Valproic Acid, ref Dahan 2008) is given as 9%.

For `CCCCCCCCCCCCCCCCOC[C@H](COP(=O)(O)CO[C@H](C)Cn1cnc2c(N)ncnc21)OCc1ccccc1` [8c, Ammonium[(1R)-2-(6-aminopurin-9-yl)-1-methyl-ethoxy]methyl-[(2R)-2-benzyloxy-3-hexadecoxy-propoxy]phosphinate], the CC50 at 48 h (Cytotoxicity, MTT assay) was > 10 µM and the half-life at 3 µM [3] was > 2 h.

With `CCCCCCCCCCCCCCCCOC[C@@H](COP(=O)(O)CO[C@H](C)Cn1cnc2c(N)ncnc21)OCc1ccccc1` [8a, Ammonium[(1R)-2-(6-aminopurin-9-yl)-1-methyl-ethoxy]methyl-[(2S)-2-benzyloxy-3-hexadecoxy-propoxy]phosphinate] the CC50 at 48 h (Cytotoxicity, MTT assay) was > 10 µM and the half-life at 3 µM [3] was > 2 h.
